In this assay the target is T1, human TLR8 (Homo sapiens, UniProt Q9NR97).
T1 construct: host or cells: HEK293 (HEK-Blue)
T1 sequence (Q9NR97 27-1041): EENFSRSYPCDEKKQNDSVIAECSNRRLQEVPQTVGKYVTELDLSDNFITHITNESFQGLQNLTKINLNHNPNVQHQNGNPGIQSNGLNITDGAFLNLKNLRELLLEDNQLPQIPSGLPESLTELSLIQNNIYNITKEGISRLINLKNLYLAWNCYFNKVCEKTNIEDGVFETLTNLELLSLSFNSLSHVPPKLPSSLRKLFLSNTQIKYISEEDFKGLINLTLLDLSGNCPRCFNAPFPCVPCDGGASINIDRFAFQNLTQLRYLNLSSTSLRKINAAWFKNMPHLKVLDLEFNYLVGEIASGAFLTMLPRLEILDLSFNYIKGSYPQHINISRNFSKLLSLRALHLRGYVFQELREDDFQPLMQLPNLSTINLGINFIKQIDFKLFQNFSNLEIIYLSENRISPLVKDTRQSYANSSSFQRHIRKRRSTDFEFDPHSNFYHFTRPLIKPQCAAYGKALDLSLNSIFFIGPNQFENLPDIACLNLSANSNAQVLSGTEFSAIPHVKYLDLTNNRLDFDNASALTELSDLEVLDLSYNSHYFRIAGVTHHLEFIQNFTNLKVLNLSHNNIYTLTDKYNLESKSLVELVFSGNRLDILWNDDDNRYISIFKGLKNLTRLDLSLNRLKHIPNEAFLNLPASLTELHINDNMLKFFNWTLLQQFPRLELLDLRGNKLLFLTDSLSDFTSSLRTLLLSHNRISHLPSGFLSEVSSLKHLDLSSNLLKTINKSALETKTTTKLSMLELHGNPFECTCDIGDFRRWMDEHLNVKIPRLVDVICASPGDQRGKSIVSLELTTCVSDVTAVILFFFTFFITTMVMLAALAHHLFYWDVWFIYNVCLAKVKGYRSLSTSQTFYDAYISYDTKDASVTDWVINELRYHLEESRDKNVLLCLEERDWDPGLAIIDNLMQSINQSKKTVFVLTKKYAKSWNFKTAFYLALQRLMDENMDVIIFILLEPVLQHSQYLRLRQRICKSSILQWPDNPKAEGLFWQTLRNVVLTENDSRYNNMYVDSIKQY
Put plainly: HEK293-Blue-hTLR-8 cells assay (SEAP reporter, R848 stimulation). Conditions: HEK293-Blue-hTLR8 cells, R848, 20 hrs; read-out: HEK/hTLR8 IC50. Type of assay: cell-based. The source says: A stable HEK293-Blue-hTLR-8 cell line was purchased from InvivoGen (Cat.#: hkb-htlr8, San Diego, California, USA). These cells were originally designed for studying the stimulation of human TLR8 by monitoring the activation of NF-κB. A SEAP (secreted embryonic alkaline phosphatase) reporter gene was placed under the control of the IFN-β minimal promoter fused to five NF-κB and AP-1-binding sites. The SEAP was induced by activating NF-κB and AP-1 via stimulating HEK-Blue hTLR8 cells with TLR8 ligands. Therefore, the reporter expression was declined by TLR8 antagonist under the stimulation of a ligand, such as R848, for incubation of 20 hrs. The cell culture supernatant SEAP reporter activity was determined using QUANTI-Blue™ kit (Cat.#: rep-qb1, Invivogen, San Diego, Ca, USA) at a wavelength of 640 nm, a detection medium that turns purple or blue in the presence of alkaline phosphatase.
HEK293-Blue-hTLR8 cells were incubated at a density of 250,000-450,000 cells/mL in a volume of 170 µL in a 96-well plate in Dulbecco's Modified Eagle's medium (DMEM) containing 4.5 g/L glucose, 50 U/mL penicillin, […], […], 2 mM L-glutamine, 10% (v/v) heat-inactivated fetal bovine serum with addition of 20 µL test compound in a serial dilution in the presence of final DMSO at 1% and 10 µL of 60uM R848 in above DMEM, perform incubation under 37 °C in a CO2 incubator for 20 hrs. Then 20 µL of the supernatant from each well was incubated with 180 µL Quanti-blue substrate solution at 37°C for 2 hrs and the absorbance was read at 620-655 nm using a spectrophotometer. The signaling pathway that TLR8 activation leads to downstream NF-κB activation has been widely accepted, and therefore similar reporter assay was modified for evaluating TLR8 antagonist.

Structures are written as SMILES.

Take `C[C@@H]1CN(c2ccc(C#N)c3ncccc23)C[C@H](CN2CCN(c3ccc4c(n3)CCNC4)C[C@H](O)C2)O1` (single isomer, unassigned) [Example 35A]: the IC50 came out at 24 nM.

With `C[C@@H]1CN(c2ccc(C#N)c3ncccc23)C[C@H](CN2CCN(c3ccc4c(n3)CCNC4)C[C@@H](O)C2)O1` (single isomer, unassigned) [Example 35B], the IC50 turned out to be 23 nM.

`C[C@@H]1CN(c2ccc(C#N)c3ncccc23)C[C@H](CN2C[C@H]3CN(c4ccc5c(n4)CCNC5)CC[C@@H]32)O1` (single isomer, unassigned) [Example 54]: the IC50 came out at 22 nM.

Regarding `C[C@@H]1CN(c2ccc(C#N)c3ncccc23)C[C@H](CN2C[C@H]3CN(c4ccc5c(n4)CCNC5)CC[C@H]32)O1` (single isomer, unassigned) [Example 55], the IC50 was found to be 16 nM.

Regarding `C[C@@H]1CN(c2ccc(C#N)c3ncccc23)C[C@H](CN2CCN(c3ccc4c(n3)CN[C@H]4C)CC2)O1` (single isomer, unassigned) [Example 63], the IC50 was determined as 3 nM.

As for `C[C@@H]1CN(c2ccc(C#N)c3ncccc23)C[C@H](CN2CCN(c3ccc4c(n3)CN[C@@H]4C)CC2)O1` (single isomer, unassigned) [Example 64], the IC50 turned out to be 6 nM.

Turning to `C[C@@H]1CN(c2ccc(C#N)c3ncccc23)C[C@H](CN2CCN(c3ccc4c(n3)[C@@H](C)NC4)CC2)O1` (single isomer, unassigned) [Example 65], the IC50 turned out to be 9 nM.

With `C[C@@H]1CN(c2ccc(C#N)c3ncccc23)C[C@H](CN2CCN(c3ccc4c(n3)[C@H](C)NC4)CC2)O1` (single isomer, unassigned) [Example 66], the IC50 turned out to be 9 nM.

On to `C[C@@H]1CN(c2ccc(C#N)c3ncccc23)C[C@H](CN2CCN(c3cnc4c(c3)CN[C@H]4C)CC2)O1` (single isomer, unassigned) [Example 67], for which the IC50 came to 20 nM.

Take `C[C@@H]1CN(c2ccc(C#N)c3ncccc23)C[C@H](CN2CCN(c3cnc4c(c3)CN[C@@H]4C)CC2)O1` (single isomer, unassigned) [Example 68]: the IC50 was 16 nM.

Consider `C[C@@H]1Cc2cc(N3CCN(C[C@H]4CN(c5ccc(C#N)c6ncccc56)C[C@@H](C)O4)CC3)ncc2CN1` (single isomer, unassigned) [Example 70], for which the IC50 is 4 nM.

Consider `C[C@@H]1CN(c2ccc(C#N)c3ncccc23)C[C@H](CN2CCN(c3cc4c(cn3)CN[C@@H](C)C4)CC2)O1` (single isomer, unassigned) [Example 71], for which the IC50 was determined as 4 nM.

On to `C[C@@H]1CN(c2ccc(C#N)c3ncccc23)C[C@H](CN2CCN(c3cc4c(cn3)[C@H](C)NCC4)CC2)O1` (single isomer, unassigned) [Example 72], for which the IC50 was 5 nM.

For the molecule `C[C@@H]1CN(c2ccc(C#N)c3ncccc23)C[C@H](CN2CCN(c3cc4c(cn3)[C@@H](C)NCC4)CC2)O1` (single isomer, unassigned) [Example 73], the IC50 was found to be 7 nM.

As for `C[C@@H]1CN(c2ccc(C#N)c3ncccc23)C[C@H](CN2CCN(c3cc4c(cn3)CCN[C@@H]4C)CC2)O1` (single isomer, unassigned) [Example 74], the IC50 is 4 nM.

For the molecule `C[C@@H]1CN(c2ccc(C#N)c3ncccc23)C[C@H](CN2CCN(c3cc4c(cn3)CCN[C@H]4C)CC2)O1` (single isomer, unassigned) [Example 75], the IC50 was 4 nM.

Turning to `C[C@@H]1CN(c2ccc(C#N)c3ncccc23)C[C@H](CN2CCN(c3cc4c(cn3)C[C@H](C)NC4)CC2)O1` (single isomer, unassigned) [Example 76], the IC50 came to 5 nM.

As to `C[C@@H]1Cc2cnc(N3CCN(C[C@H]4CN(c5ccc(C#N)c6ncccc56)C[C@@H](C)O4)CC3)cc2CN1` (single isomer, unassigned) [Example 77], the IC50 turned out to be 7 nM.

As for `C[C@@H]1CN(c2ccc(C#N)c3nccnc23)C[C@H](CN2CCN(c3ccc4c(n3)CN[C@H]4C)CC2)O1` (single isomer, unassigned) [Example 78], the IC50 worked out at 2 nM.

In the case of `C[C@@H]1CN(c2ccc(C#N)c3nccnc23)C[C@H](CN2CCN(c3ccc4c(n3)CN[C@@H]4C)CC2)O1` (single isomer, unassigned) [Example 79], the IC50 turned out to be 2 nM.

Take `C[C@@H]1CN(c2ccc(C#N)c3nccnc23)C[C@H](CN2CCN(c3cc4c(cn3)C[C@H](C)NC4)CC2)O1` (single isomer, unassigned) [Example 81]: the IC50 stood at 3 nM.

As to `C[C@@H]1Cc2cnc(N3CCN(C[C@H]4CN(c5ccc(C#N)c6nccnc56)C[C@@H](C)O4)CC3)cc2CN1` (single isomer, unassigned) [Example 82], the IC50 was 3 nM.

With `C[C@@H]1Cc2cc(N3CCN(C[C@H]4CN(c5ccc(C#N)c6nccnc56)C[C@@H](C)O4)CC3)ncc2CN1` (single isomer, unassigned) [Example 83], the IC50 was determined as 2 nM.

With `C[C@@H]1CN(c2ccc(C#N)c3nccnc23)C[C@H](CN2CCN(c3cc4c(cn3)CN[C@@H](C)C4)CC2)O1` (single isomer, unassigned) [Example 84], the IC50 came out at 2 nM.

As for `C[C@@H]1CN(c2ccc(C#N)c3nccnc23)C[C@H](CN2CCN(c3cc4c(cn3)[C@H](C)NCC4)CC2)O1` (single isomer, unassigned) [Example 85], the IC50 stood at 2 nM.

As to `C[C@@H]1CN(c2ccc(C#N)c3ncccc23)C[C@H](CN2CC3[C@H](C2)OCCN3c2ccc3c(n2)CCNC3)O1` (stereo in doubt) [Example 53, cis-5-[(2R,6S)-2-methyl-6-[[4-(5,6,7,8-tetrahydro-1,6-naphthyridin-2-yl)-2,3,4a,5,7,7a-hexahydropyrrolo[3,4-b][1,4]oxazin-6-yl]methyl]morpholin-4-yl]quinoline-8-carbonitrile], the IC50 was 21 nM.

Regarding `C[C@@H]1CN(c2ccc(C#N)c3ncccc23)C[C@H](CN2CCN(c3cccc4c3CNC4)CC2)O1` [Example 2, 5-[(2S,6R)-2-[(4-isoindolin-4-ylpiperazin-1-yl)methyl]-6-methyl-morpholin-4-yl] quinoline-8-carbonitrile], the IC50 amounted to 8 nM.

Turning to `C[C@@H]1CN(c2ccc(C#N)c3ncccc23)C[C@H](CN2CCN(c3ccc4c(c3)CNC4)[C@@H](CO)C2)O1` [Example 4, 5-[(2S,6R)-2-[[(3R)-3-(hydroxymethyl)-4-isoindolin-5-yl-piperazin-1-yl]methyl]-6-methyl-morpholin-4-yl]quinoline-8-carbonitrile], the IC50 was determined as 27 nM.

For `C[C@@H]1CN(c2ccc(C#N)c3ncccc23)C[C@H](CN2CCN(c3ccc4c(c3)CCNC4)CC2)O1` [Example 5, 5-[(2R,6S)-2-methyl-6-[[4-(1,2,3,4-tetrahydroisoquinolin-6-yl)piperazin-1-yl]methyl]morpholin-4-yl]quinoline-8-carbonitrile], the IC50 was 20 nM.

For `C[C@@H]1CN(c2ccc(C#N)c3ncccc23)C[C@H](CN2CCN(c3ccc4c(c3)CNC4)CC2)O1` [Example 7, 5-[(2S,6R)-2-[(4-isoindolin-5-ylpiperazin-1-yl)methyl]-6-methyl-morpholin-4-yl] quinoline-8-carbonitrile], the IC50 came out at 30 nM.
